Measured values as given in patent publication US8765730B2 (Hoffmann-La Roche Inc, priority 2010, dated 2014).
Where two headings read alike, the source gives them in different places.

Target: T1, human GPBAR1 receptor (Homo sapiens, UniProt Q8TDU6)
T1 construct: expressed in transfected cells
T1 sequence (Q8TDU6 1-330): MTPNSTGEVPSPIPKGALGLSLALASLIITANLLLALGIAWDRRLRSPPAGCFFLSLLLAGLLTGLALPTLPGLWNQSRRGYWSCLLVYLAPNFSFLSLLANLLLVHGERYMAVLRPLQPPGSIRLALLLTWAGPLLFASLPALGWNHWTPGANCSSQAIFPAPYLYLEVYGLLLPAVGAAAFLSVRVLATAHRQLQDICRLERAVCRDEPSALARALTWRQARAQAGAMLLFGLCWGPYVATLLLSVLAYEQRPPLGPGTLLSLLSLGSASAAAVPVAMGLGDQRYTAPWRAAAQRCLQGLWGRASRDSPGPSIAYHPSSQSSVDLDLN
Experiment: functional cAMP assay in CHO-dhfr(minus) cells expressing human GPBAR1 receptors
Format: cell-based
Settings: 30 min at 30° C.
In short: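 Agonist cAMP read-out: stable GPBAR1 CHO-dhfr− clone, 30 min compound exposure at 30° C following 30 min IBMX (1 mM) preincubation in Krebs Ringer bicarbonate. Time-resolved energy-transfer detection gives EC50; parental CHO cells serve as counter-screen.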

[1] = human EC50, functional cAMP assay

Compound	EC50 [1] [nM]	EC50 (functional cAMP assay, read-out: human EC50) [nM]
Cc1cc(/C(C[C@H](c2ccc(C3CCC(C(=O)O)CC3)cc2)c2ccc(Cl)cc2C)=N/O)ccn1 (stereo partly drawn) [Example 503, (R,E)-4-(4-(1-(4-Chloro-2-methylphenyl)-3-(hydroxyimino)-3-(2-methylpyridin-4-yl)propyl)phenyl)cyclohexanecarboxylic acid]	25	–
Cc1cc(/C(C[C@H](c2ccc(-c3ccc(C(=O)O)cc3)cc2)c2ccc(Cl)cc2C)=N/O)ccn1 [Example 297, 4′-[(R)-1-(4-Chloro-2-methyl-phenyl)-3-[(E)-hydroxyimino]-3-(2-methyl-pyridin-4-yl)-propyl]-biphenyl-4-carboxylic acid]	13	–
Cc1cc(/C(C[C@H](c2ccc(C3=CCNCC3)cc2)c2ccccc2C)=N/O)ccn1 [Example 375, (R,E)-1-(2-Methylpyridin-4-yl)-3-(4-(1,2,3,6-tetrahydropyridin-4-yl)phenyl)-3-o-tolylpropan-1-one oxime]	75	–
Cc1ccccc1C(CC(=NO)c1ccncc1)c1ccc(N2CCOCC2)cc1 (racemic) [Example 41, 3-(4-Morpholin-4-yl-phenyl)-1-pyridin-4-yl-3-o-tolyl-propan-1-one oxime]	36	–
Cn1cc(/C(CC(c2ccccc2)c2ccccc2)=N/O)ccc1=O [Example 161, 5-{1-[(E)-Hydroxyimino]-3,3-diphenyl-propyl}-1-methyl-1H-pyridin-2-one]	119	–
COC(CCl)CNc1ccc([C@@H](C/C(=N\O)c2ccnc(C)c2)c2ccccc2C)cc1 (stereo partly drawn) [Example 357, (R)-3-[4-(3-Chloro-2-methoxy-propylamino)-phenyl]-1-(2-methyl-pyridin-4-yl)-3-o-tolyl-propan-1-one oxime]	–	91
Cc1ccccc1C(CC(=NO)c1ccncc1)c1cccc(C(=O)O)c1 (racemic) [Example 71, 3-{3-[Hydroxyimino]-3-pyridin-4-yl-1-o-tolyl-propyl}-benzoic acid]	1620	–
Cc1cc(/C(C[C@H](c2ccc(N3C[C@@H]4C(C(=O)O)[C@@H]4C3)cc2)c2ccc(F)cc2F)=N/O)ccn1 (single isomer, unassigned) [Example 429]	2	–
CCOC(=O)COc1cccc(-c2ccc(C(C/C(=N\O)c3ccncc3)c3ccccc3)cc2)c1 (stereo not drawn) [Example 28, (4′-{3-[(E)-Hydroxyimino]-1-phenyl-3-pyridin-4-yl-propyl}-biphenyl-3-yloxy)-acetic acid ethyl ester]	163	–
Cc1cc(/C(C[C@H](c2ccc(C3CN(C(=O)OC(C)(C)C)C3)cc2)c2ccccc2C)=N/O)ccn1 [Example 481, (R,E)-tert-Butyl 3-(4-(3-(hydroxyimino)-3-(2-methylpyridin-4-yl)-1-o-tolylpropyl)phenyl)-azetidine-1-carboxylate]	153	–
Cc1ccccc1C(C/C(=N\O)c1ccc(=O)n(C)c1)c1ccc(Br)cc1F (stereo not drawn) [Example 193, 5-{3-(4-Bromo-2-fluoro-phenyl)-1-[(E)-hydroxyimino]-3-o-tolyl-propyl}-1-methyl-1H-pyridin-2-one]	19	–
Cc1cnc(F)c(/C(CC(c2ccc(Br)cc2)c2ccccc2C)=N/O)c1 (stereo not drawn) [Example 128, (E)-3-(4-Bromo-phenyl)-1-(2-fluoro-5-methyl-pyridin-3-yl)-3-o-tolyl-propan-1-one oxime]	650	–
Cc1cc(C(CC(c2ccc(C#CCO)cc2)c2ccccc2C)=NO)ccn1 (racemic) [Example 85, 3-[4-(3-Hydroxy-prop-1-ynyl)-phenyl]-1-(2-methyl-pyridin-4-yl)-3-o-tolyl-propan-1-one oxime]	1	–
Cn1cc(/C(CC(Cc2ccc(OC(F)(F)F)cc2)c2ccc(Br)cc2)=N/O)ccc1=O (stereo not drawn) [Example 180, 5-[3-(4-Bromo-phenyl)-1-[(E)-hydroxyimino]-4-(4-trifluoromethoxy-phenyl)-butyl]-1-methyl-1H-pyridin-2-one]	3450	–
Cc1cc(/C(C[C@H](c2ccc(C3CN(S(C)(=O)=O)C3)cc2)c2ccccc2C)=N/O)ccn1 [Example 484, (R,E)-1-(2-Methylpyridin-4-yl)-3-(4-(1-(methylsulfonyl)azetidin-3-yl)phenyl)-3-o-tolylpropan-1-one oxime]	10	–
Cc1cc(/C(C[C@H](c2ccc(-c3nnc(C4CC4)o3)cc2)c2ccccc2C)=N/O)ccn1 [Example 418, ((−), E)-3-(4-(5-Cyclopropyl-1,3,4-oxadiazol-2-yl)phenyl)-1-(2-methylpyridin-4-yl)-3-o-tolylpropan-1-one oxime]	4	–
Cc1cc(C(CC(c2ccc(Br)cc2)c2ccccc2C)=NO)cc(F)n1 (racemic) [Example 126, 3-(4-Bromo-phenyl)-1-(2-fluoro-6-methyl-pyridin-4-yl)-3-o-tolyl-propan-1-one oxime]	61	–

Compound	EC50 [1] [nM]	EC50 (functional cAMP assay, read-out: human EC50) [nM]
Cc1cc(=O)n(C)cc1/C(CC(c1ccc(Br)cc1)c1ccccc1C)=N\O (stereo not drawn) [Example 200, 5-{3-(4-Bromo-phenyl)-1-[(Z)-hydroxyimino]-3-o-tolyl-propyl}-1,4-dimethyl-1H-pyridin-2-one]	558	–
Cc1ncsc1C(C/C(=N\O)c1ccc(=O)n(C)c1)c1ccc(Br)cc1 (stereo not drawn) [Example 330, (E)-5-(3-(4-Bromophenyl)-1-(hydroxyimino)-3-(4-methylthiazol-5-yl)propyl)-1-methylpyridin-2(1H)-one]	92	–
Cc1cc(/C(C[C@H](c2ccc(N3CCC(C(=O)NCCS(=O)(=O)O)CC3)cc2)c2ccccc2C)=N/O)ccn1 [Example 370, (R,E)-2-(1-(4-(3-(hydroxyimino)-3-(2-methylpyridin-4-yl)-1-o-tolylpropyl)phenyl)-piperidine-4-carboxamido)ethanesulfonic acid]	1	–
Cc1ccccc1[C@H](C/C(=N\O)c1ccnc(Cl)c1)c1ccc(-c2ccc(C(=O)O)cc2)cc1 [Example 290, 4′-{(R)-3-(2-Chloro-pyridin-4-yl)-3-[(E)-hydroxyimino]-1-o-tolyl-propyl}-biphenyl-4-carboxylic acid]	37	–
[O-][n+]1ccc(/C(CC(c2ccccc2)c2ccc(Br)cc2)=N/O)cc1 (stereo not drawn) [Example 15, (E)-3-(4-Bromo-phenyl)-1-(1-oxy-pyridin-4-yl)-3-phenyl-propan-1-one oxime]	206	–
Cc1cc(F)ccc1C(C/C(=N\O)c1ccc(=O)n(C)c1)c1ccc(Br)cc1 (stereo not drawn) [Example 224, (E)-5-(3-(4-Bromophenyl)-3-(4-fluoro-2-methylphenyl)-1-(hydroxyimino)propyl)-1-methylpyridin-2(1H)-one]	6	–
Cc1ccccc1[C@H](C/C(=N\O)c1cc(F)ncc1Cl)c1ccc(-c2ccc(C(=O)O)cc2)cc1 [Example 293, 4′-{(R)-3-(5-Chloro-2-fluoro-pyridin-4-yl)-3-[(E)-hydroxyimino]-1-o-tolyl-propyl}-biphenyl-4-carboxylic acid]	12	–
Cn1cc(/C(CC(c2ccc(Br)cc2)C2CCCC2)=N\O)ccc1=O (stereo not drawn) [Example 173, 5-{3-(4-Bromo-phenyl)-3-cyclopentyl-1-[(Z)-hydroxyimino]-propyl}-1-methyl-1H-pyridin-2-one]	1930	–
Cc1cc(C(CC(c2cccc(-c3cccc(C(=O)O)c3)c2)c2ccccc2C)=NO)ccn1 (racemic) [Example 102, 3′-[3-[Hydroxyimino]-3-(2-methyl-pyridin-4-yl)-1-o-tolyl-propyl]-biphenyl-3-carboxylic acid]	323	–
Cn1cc(/C(CC(c2ccc(-c3c[nH]c(=O)[nH]c3=O)cc2)c2ccc(Cl)cc2F)=N/O)ccc1=O (stereo not drawn) [Example 471, 5-{4-[1-(4-Chloro-2-fluoro-phenyl)-3-[(E)-hydroxyimino]-3-(1-methyl-6-oxo-1,6-dihydro-pyridin-3-yl)-propyl]-phenyl}-1H-pyrimidine-2,4-dione]	170	–
Cn1cc(/C(C[C@@H](c2ccc(-c3ccc(C(=O)O)s3)cc2)c2ccc(Cl)cc2F)=N/O)ccc1=O [Example 470, 5-{4-[(+)-1-(4-Chloro-2-fluoro-phenyl)-3-[(E)-hydroxyimino]-3-(1-methyl-6-oxo-1,6-dihydro-pyridin-3-yl)-propyl]-phenyl}-thiophene-2-carboxylic acid]	61	–
Cc1cc(Cl)ccc1C(C/C(=N\O)c1ccc(=O)n(C)c1)c1ccc(C(=O)NC[C@@H](O)CO)cc1 (stereo partly drawn) [Example 335, 4-((E)-1-(4-Chloro-2-methylphenyl)-3-(hydroxyimino)-3-(1-methyl-6-oxo-1,6-dihydropyridin-3-yl)propyl)-N—((R)-2,3-dihydroxypropyl)benzamide]	113	–
COCCN(C)c1ccc(C(C/C(=N\O)c2ccncc2)c2ccccc2C)cc1 (stereo not drawn) [Example 39, (E)-3-{4-[(2-Methoxy-ethyl)-methyl-amino]-phenyl}-1-pyridin-4-yl-3-o-tolyl-propan-1-one oxime]	75	–
Cc1cc(/C(C[C@H](c2ccc(N3CCCC3=O)cc2)c2ccccc2C)=N/O)ccn1 [Example 299, 1-{4-[(R)-3-[(E)-Hydroxyimino]-3-(2-methyl-pyridin-4-yl)-1-o-tolyl-propyl]-phenyl}-pyrrolidin-2-one]	28	–
Cc1cc(/C(C[C@H](c2ccc(C3CCNCC3)cc2)c2ccccc2C)=N/O)ccn1 [Example 378, (R,E)-1-(2-Methylpyridin-4-yl)-3-(4-(piperidin-4-yl)phenyl)-3-o-tolylpropan-1-one oxime]	145	–
Cc1cc(Cl)ccc1C(C/C(=N\O)c1ccc(=O)n(CCC(N)=O)c1)c1ccc(S(C)(=O)=O)cc1 (stereo not drawn) [Example 344, (E)-3-(5-(3-(4-Chloro-2-methylphenyl)-1-(hydroxyimino)-3-(4-(methylsulfonyl)phenyl)-propyl)-2-oxopyridin-1(2H)-yl)propanamide]	186	–
